Legend:
Assay in all cases: chnB monooxygenase activity assay, NADPH oxidation at 340 nm, purified over-expressed enzyme
Assay type in all cases: biochemical
[1] = test system: Brevibacterium sp. HCU chnB1 monooxygenase; conditions: 1.25 mM substrate, pH 7.5; ND = No Activity Detected
Excerpt: (§1) Following amplification, the chnB gene fragments were cloned into pTrcHis-TOPO TA vectors with either an N-terminal tail or C-terminal tail, as provided by the vector sequence (N-terminal tail for Brevibacterium sp. HCU, Rhodococcus sp. phi1, Rhodococcus sp. phi2, and Arthrobacter sp. BP2 monooxygenases; C-terminal tail for Acinetobacter sp. SE19 and Acidovorax sp. CHX monooxygenases). These vectors were transformed into E. coli, with transformants grown in Luria-Bertani broth supplemented with ampicillin (100 ug/ml) and riboflavin (0.1 ug/ml) at 30° C. until the absorbance at 600 nm (A600) reached 0.5. When the A600 was reached, the temperature was shifted to 16° C.
(§2) The encoded monooxygenase sequences were expressed upon addition of IPTG to the culture media, 30 min after the temperature shift to 16° C. The cultures were grown further ovemight (14 hrs) and harvested by centrifugation in a cold centrifuge. The cells were treated with lysozyme (100 mg/ml) for 30 min on ice and sonicated. Following sonication, cell extracts were centrifuged and the supernatant was equilibrated with Ni-NTA resin (Qiagen, Valencia, Calif.) for 1 hr at 4° C. Protein bound resin was washed successively with increasing concentrations of imidazole buffer until the protein of interest was released from the resin. The purified protein was concentrated and the buffer exchanged to remove the imidazole. The protein concentration was adjusted to 1 ug/ml.
(§3) Compounds were selected on the basis of previous observations by van der Werf (J. Biochem. 347:693-701 (2000)) and Miyamoto et al. (Biochimica et Biophysica Acta 1251: 115-124 (1995)) and by searches for the ketone substructure.
(§4) All compounds were obtained from Sigma-Aldrich with only two exceptions. Levoglucosenone was obtained from Toronto Research Chemicals, Inc. and dimethyl-2-piperidone was prepared according to U.S. Pat. No. 6,077,955. For enzyme assays all compounds were dissolved to a concentration of 0.1 M in methanol, with the exceptions of norcamphor (dissolved in ethyl acetate), cyclododecanone, cycltridecanone and cyclopentadecanone (dissolved in propanol), and levoglucosenone (dissolved with acetone).
(§5) The monooxygenase activity of each over-expressed enzyme was assayed spectrophotometrically at 340 nm by monitoring the oxidation of NADPH. Assays were performed in individual quartz cuvettes, with a pathlength of 1 cm. […] An Ultrospec 4000 (Pharmacia Biotech, Cambridge, England) was used to read the absorbance of the samples over a two to ten minute time period and the SWIFT (Pharmacia Biotech) program was used to calculate the slope of the reduction in absorbance over time. For the Brevibactedum sp. […] Monooxygenase activity of each over-expressed enzyme is shown in Table 5, with respect to each ketone substrate. The specific activity values listed are given in umol/min/mg. The notation “ND” refers to “No Activity Detected”.

[2] = test system: Brevibacterium sp. HCU chnB2 monooxygenase; conditions: 1.25 mM substrate, pH 7.5; rates multiplied by a factor of 3.25 to adjust for decrease in activity due to storage; ND = No Activity Detected
Excerpt: as §1, §2, §3, §4, §5

[3] = test system: Acidovorax sp. CHX chnB monooxygenase; conditions: 1.25 mM substrate, pH 7.5; ND = No Activity Detected
Excerpt: as §1, §2, §3, §4, §5

[4] = test system: Arthrobacter sp. BP2 chnB monooxygenase; conditions: 1.25 mM substrate, pH 7.5; ND = No Activity Detected
Excerpt: as §1, §2, §3, §4, §5

[5] = test system: Rhodococcus sp. phi1 chnB monooxygenase; conditions: 1.25 mM substrate, pH 7.5; ND = No Activity Detected
Excerpt: as §1, §2, §3, §4, §5

[6] = test system: Rhodococcus sp. phi2 chnB monooxygenase; conditions: 1.25 mM substrate, pH 7.5; ND = No Activity Detected
Excerpt: as §1, §2, §3, §4, §5

[7] = target: T1, Acinetobacter sp. SE19 chnB monooxygenase (Acinetobacter sp., UniProt Q9F7E4); conditions: 1.25 mM substrate, pH 7.5; ND = No Activity Detected
T1 construct: isolated full length BVMO genes from Brevibacterium sp; HCU, Acinetobacter SE19; C-terminal tail provided by the pTrcHis-TOPO vector (C); made in house; host or cells: E. coli
Excerpt: as §1, §2, §3, §4, §5

Compound	Specific Activity of Monooxygenase Enzymes Against Various Ketone Substrates, sp. HCU chnB1 [1]	Specific Activity of Monooxygenase Enzymes Against Various Ketone Substrates, sp. HCU chnB2 [2]	Specific Activity of Monooxygenase Enzymes Against Various Ketone Substrates, sp. CHX chnB [3]	Specific Activity of Monooxygenase Enzymes Against Various Ketone Substrates, sp. BP2 chnB [4]	Specific Activity of Monooxygenase Enzymes Against Various Ketone Substrates, sp. phi1 chnB [5]	Specific Activity of Monooxygenase Enzymes Against Various Ketone Substrates, sp. phi2 chnB [6]	Specific Activity of Monooxygenase Enzymes Against Various Ketone Substrates, sp. SE19 chnB [7]
CC1CCCCC1=O (stereo not drawn) [2-methyl-cyclohexanone]	2.714 µmol/min/mg	1.622 µmol/min/mg	0.627 µmol/min/mg	4.205 µmol/min/mg	4.774 µmol/min/mg	5.952 µmol/min/mg	9.990 µmol/min/mg
CC1CCCC1=O (stereo not drawn) [2-methyl-cyclopentanone]	1.395 µmol/min/mg	0.874 µmol/min/mg	0.627 µmol/min/mg	3.514 µmol/min/mg	3.392 µmol/min/mg	6.445 µmol/min/mg	8.378 µmol/min/mg
O=C1CCCCCC1 [Cycloheptanone]	0.646 µmol/min/mg	0.374 µmol/min/mg	0.608 µmol/min/mg	3.846 µmol/min/mg	3.622 µmol/min/mg	6.234 µmol/min/mg	8.422 µmol/min/mg
O=C1C=CCCC1 [Cyclohex-2-ene-1-one]	0.435 µmol/min/mg	0.541 µmol/min/mg	0.666 µmol/min/mg	2.739 µmol/min/mg	2.694 µmol/min/mg	3.091 µmol/min/mg	5.357 µmol/min/mg
O=C1CCCCC1 [Cyclohexanone]	2.765 µmol/min/mg	1.726 µmol/min/mg	0.397 µmol/min/mg	3.565 µmol/min/mg	3.680 µmol/min/mg	3.750 µmol/min/mg	6.349 µmol/min/mg
O=C1CC2CC[C@H]1C2 [Norcamphor]	0.410 µmol/min/mg	1.331 µmol/min/mg	0.166 µmol/min/mg	2.842 µmol/min/mg	1.504 µmol/min/mg	2.816 µmol/min/mg	4.474 µmol/min/mg
O=C1Cc2ccccc2N1 [Oxindole]	2.438 µmol/min/mg	0.229 µmol/min/mg	0.307 µmol/min/mg	4.845 µmol/min/mg	3.411 µmol/min/mg	4.858 µmol/min/mg	7.091 µmol/min/mg
CC(=O)/C=C/C1=C(C)CCCC1(C)C [beta-ionone]	0.109 µmol/min/mg	0.374 µmol/min/mg	0.544 µmol/min/mg	1.485 µmol/min/mg	2.707 µmol/min/mg	0.544 µmol/min/mg	3.347 µmol/min/mg
dimethy-2-piperidone	2.822 µmol/min/mg	0.354 µmol/min/mg	0.557 µmol/min/mg	4.154 µmol/min/mg	3.539 µmol/min/mg	6.509 µmol/min/mg	8.384 µmol/min/mg
